We go through one compound from US20240000769A1, “AMORPHOUS SOLID DISPERSIONS” (UCB Biopharma SRL, priority 2020, published 2024).

≈ marks a conversion by molar mass, not a printed value. Like-named read-outs stand apart in the source and are kept apart here.

Series [1] is described as follows: Dynamic dissolution profile, USP Apparatus 2, simulated gastric media then FaSSIF-V2. It is filed as physicochemical. The settings on record: 37° C., 30 min 0.1N HCl (1 mg/mL) then 180 min FaSSIF-V2 (0.5 mg/mL).
Description: The dissolution profile was determined in a USP Apparatus 2 type (Distek 2100 C Dissolution Apparatus) at 37° C. The dynamic dissolution test includes first a 30 minutes dissolution in simulated gastric media (0.1N HCl) to achieve a concentration equivalent to a concentration of compound of formula (I) of 1 mg/mL, followed by a 180 minutes dissolution in FaSSIF-V2 to achieve a concentration equivalent to a concentration of compound of formula (I) of 0.5 mg/mL.
Then, 50 mL of simulated gastric media (0.1N HCl) was added to the vessel and the paddle speed was fixed at 100 rpm. After 30 minutes, an equivalent volume (50 mL) of fasted state biorelevant media was added to the vessel to obtain the composition of FaSSIF-V2. Dissolution was carried out in triplicate (n=3). At each timepoint, the suspension was filtered through a 0.45-μm ultra free filter (Merck Millipore) and the content of compound of formula (I) was determined by HPLC. The filtrate was then diluted with a suitable organic solvent.
A short description of series [2]: Shake flask solubility (24 h) in buffer/biorelevant media. It is filed as physicochemical. To be noted: thermodynamic from solid, n=3, read-out: Solubility Measurements (24 h). The procedure:
The respective solubility of compounds of formula (Ia) and ASD1 was determined in different media while using the shake flask method. An excess of solid (equivalent to a concentration of compound of formula (I) of 5 mg/mL) was suspended in 5 mL of buffer/biorelevant media as specifically described in Table 4 and incubated in a sealed glass vial (10 mL) for 24 h at both RT and 37° C. in a climatic chamber equipped with a rotary mixer. The 24h time point was assumed to have reached solubility, at which time the suspension was filtered through a 0.45-μm ultra free filter (Merck Millipore) and the drug content was determined by HPLC. The solubility of compound (Ia) and ASD1 was determined in triplicate (n=3). Where required to prevent drug precipitation, the filtrate was diluted with a suitable organic solvent. […] These media are respectively a phosphate buffer, FasSGF, FASSIF-V2 and FeSSIF-V2. FasSG is fasted condition gastric fluid. FasSGF is prepared at pH 1.6 and contains 0.08 mM Taurocholate, 0.02 mM phospholipids, 34 mM sodium and 59 mM chloride. FaSSIF-V2 and FeSSIF-V2 are Fasted and Fed State Biorelevant Media, respectively. FaSSIF-V2 is prepared at pH 6.5 and contains 3 mM Taurocholate, 0.2 mM Phospholipids, 106 mM Sodium, 69 mM Chloride and 19 mM Maleic acid. FeSSIF-V2 is prepared at pH 5.8 and contains 10 mM Taurocholate, 2 mM Phospholipids, 0.8 mM Oleate, 5 mM Glycerol monoleate, 218 mM Sodium, 125 mM Chloride and 55 mM Maleic acid.

The term solubility denotes the concentration that dissolves in the medium under given conditions. Turning to `C[C@H]1c2cccc(C(C)(C)O)c2C[C@H](CO)N1C(=O)Cc1c(Cl)ccc2c1c(Cl)nn2C` [Compound (Ia), 2-(3,5-dichloro-1-methyl-indazol-4-yl)-1-[(1S,3R)-3-(hydroxymethyl)-5-(1-hydroxy-1-methyl-ethyl)-1-methyl-3,4-dihydro-1H-isoquinolin-2-yl]ethanone], the “dissolution profile over time” value in series [1] is listed as “drops in gastric media to very low levels”. Besides, the solubility at 24 h in series [2] (aqueous buffer, Phosphate buffer (50 mM), pH 5.8, RT) is under 1 µg/mL; in series [2] (aqueous buffer, Phosphate buffer (50 mM), pH 6.5, RT) it was under 1 µg/mL; in series [2] (fassgf or other biorelevant, FasSGF, pH 1.6, 37° C.) it was under 1 µg/mL; in series [2] (FaSSIF-V2, pH 6.5, 37° C.) it was about 1.5 µg/mL (≈ 3.15 µM); in series [2] (FeSSIF-V2, pH 5.8, 37° C.), about 4 µg/mL (≈ 8.4 µM).
